From publication PMC10536132, “Arginine Gemini-Based Surfactants for Antimicrobial and Antibiofilm Applications: Molecular Interactions, Skin-Related Anti-Enzymatic Activity and Cytotoxicity” (Molecules, 2023)
Marks after values point to notes of the source that are not given here.

Key:
[1] = system: Pseudomonas aeruginosa PAO1 biofilm; test: Biofilm eradication, crystal violet; format: cell-based; details: P. aeruginosa PAO1, at 32 μg/mL
Method: (§1) The ability of these geminis to disperse and eradicate biofilms once formed on the propylene surfaces of the microtiter plates was evaluated using the same bacterial strains. […] The susceptibility of both biofilms against the tested surfactants was similar. At a low concentration of 32 μg/mL, C3(CA)2 and C3(LA)2 were able to eradicate around 60–70% of preformed biofilm; however, at this concentration, the […] hydrophobic compound, C3(OA)2, eradicated less than 30% of biofilm. At high concentrations, the eradication percentage is similar for all alkyl chains. […] In this case, at low concentrations, there is not a clear dependence between the antibiofilm properties and the spacer; however, at a high concentration, the best effectivity was obtained for the longer spacer chains.
(§2) Antibiofilm activity was assessed against biofilm-producing strains of methicillin-resistant Staphylococcus aureus (MRSA) ATCC 43300 and Pseudomonas aeruginosa PAO1. Biofilm inhibition and eradication capacities of the gemini surfactants were evaluated against adherent bacterial biofilms grown in 96-well microtiter plates. Bacteria were grown overnight in tryptic soy agar at 37 °C for 24 h. The bacteria were suspended in lysogeny broth with glucose (1%) at 1.5 × 10^8 CFU/mL.
(§3) Biofilm eradication procedure: For mature biofilm formation, 200 μL of the diluted bacterial suspension was added to each well in a 96-well microplate and incubated at 37 °C for 24 h. The wells were gently rinsed with phosphate-buffered saline (PBS) and 200 μL of the corresponding gemini surfactant solution was added to each well and incubated again at 37 °C for 24 h. Two-fold serial dilutions of the gemini surfactant were used (4–128 μg/mL). After the plates were air dried, the biofilms were stained with 50 μL of 0.1 of % crystal violet for 25 min. The plates were rinsed with water and then 150 μL of 96% ethanol containing 10% acetic acid was added to all 96-well plates to dissolve the remaining crystal violet-stained biofilm. The absorbance value was recorded at 570 nm. Each assay was conducted at least three times and the results were averaged.

[2] = system: methicillin-resistant Staphylococcus aureus (MRSA) ATCC 43300 biofilm; test: Biofilm eradication, crystal violet; format: cell-based; details: at 32 μg/mL
Method: as §1, §2, §3

[3] = molecular target: porcine pancreatic elastase (Sus scrofa, UniProt P00772); test: Elastase inhibitory assay; format: biochemical; details: 40 µL of 1000 µg/mL stock; EGCG 250 μM
How it was run: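 Porcine pancreatic elastase preincubated 15 min with diluted surfactant samples, then N-succinyl-(Ala)3-p-nitroanilide substrate added in Tris-HCl pH 8.0. Absorbance at 410 nm followed for 2 h; % inhibition from absorbance without versus with sample, in triplicate.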

[4] = Cell viability, NRU assay; format: cell-based, human; details: human, HaCaT cells (immortal human keratinocytes); NRU, HaCaT, surfactant in solution at 35.6 µg/mL, 24 h; read-out: cellular viability
Method: (§4) The immortal human keratinocyte (HaCaT) and the squamous cell carcinoma (A431) were obtained from Celltec, University of Barcelona. The cells were grown in DMEM medium (4.5 g/L glucose) supplemented with 10% (v/v) FBS, 2 mM L-glutamine, 100 U/mL of penicillin and 100 μg/mL of streptomycin at 37 °C under 5% CO2. Cells were routinely cultured in 75 cm^2 culture flasks and were trypsinized using trypsin-EDTA when reached approximately 80% of confluence.
(§5) HaCaT cells (1 × 10^5 cells/mL) and A431 cells (5 × 10^4 cells/mL) were grown at the defined densities into the central 60 wells of a 96-well microplate. Cells were incubated for 24 h under 5% CO2 at 37 °C. The medium was then removed and the cells were incubated with the surfactants (100 μL), previously diluted 1:1 (v/v), reaching a concentration of […] in DMEM medium supplemented with 5% FBS using two different colorimetric methods for quantification, as follows.
(§6) The accumulation of the neutral red dye in the lysosomes of viable, undamaged cells constitutes the basis of the neutral red uptake (NRU) assay. After the cells were incubated for 24 h with the corresponding systems at 35.6 µg/mL, the medium was removed and the surfactants´ solutions were incubated for 3 h with the NRU dye solution (50 μg/mL) dissolved in the medium without FBS and phenol red (Lonza). Cells were then washed with sterile PBS, followed by the addition of 100 μL of a solution containing 50% ethanol absolute and 1% acetic acid in distilled water to extract the non-adhered dye. The microplates were then stirred for 5 min at 25 °C to promote the dissolution. Finally, the absorbance of the resulting solutions was measured at λ = 550 nm using a Bio-Rad 550 microplate reader (Hercules, CA, USA).

[5] = system: immortal human keratinocytes (HaCaT); test: Cell viability, NRU assay; format: cell-based
Method: as §4, §5, §6

[6] = design: method as in doi:10.1021/la981295l; details: cited from earlier work

Chain of porcine pancreatic elastase (P00772 27-266): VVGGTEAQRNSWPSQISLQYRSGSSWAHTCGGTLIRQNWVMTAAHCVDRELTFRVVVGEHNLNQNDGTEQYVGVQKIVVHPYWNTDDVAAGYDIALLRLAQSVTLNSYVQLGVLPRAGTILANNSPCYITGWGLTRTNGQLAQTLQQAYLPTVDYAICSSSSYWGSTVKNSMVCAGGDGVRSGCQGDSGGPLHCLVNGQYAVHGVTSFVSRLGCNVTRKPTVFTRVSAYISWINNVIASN

Structure (SMILES): CCCCCCCCCCCC(=O)NC(CCCNC(=N)N)C(=O)NCCCNC(=O)C(CCCNC(=N)N)NC(=O)CCCCCCCCCCC (stereo not drawn) [C3(LA)2, Bis (N^α-lauroyl arginine 1,3-propane) diamide]
- preformed biofilm eradicated [1]: 60–70%
- preformed biofilm eradicated [2]: 60–70%
- anti-elastase activity (inhibition) [3]: 17%
- viability at 24 h, 35.6 µg/mL [4]: 66.2%
- IC50 ([5]; Homo sapiens, NRU method, HaCaT, above the highest tested concentration): > 35.6 µg/mL
- therapeutic index (TI), IC50/MIC ratio ([5]; NRU, HaCaT IC50 versus MIC against the Gram-positive bacteria, E. coli and PA01): higher than one
- CMC (mM) Conductivity [6]: 0.5 * mM
